According to patent US11767316B2, “Non-fused thiophene derivatives and their uses” (ENYO PHARMA, priority 2018, dated 2023):

How the values were obtained:
Format in all cases: cell-based
PRXF PC-3M = assay: Cytotoxicity, propidium iodide based monolayer assay, PRXF PC-3M; conditions: Homo sapiens, 96 h; PRXF PC-3M (prostate adeno carcinoma), four days of treatment, T/C=50%; read-out: Absolute IC50
Method: (§1) The cytotoxicity was tested for compounds of the invention on five different cell-lines, namely LXFL 1121, MAXF 401, MMXF L-636, PRXF PC-3M and UXF 1138 which are respectively lung large cell carcinoma, breast adeno carcinoma, multiple myeloma, prostate adeno carcinoma and uterine sarcoma.
(§2) A working stock solution of the test compounds was prepared in DMSO at a concentration of 33 mM or 8.25 mM, and small aliquots were stored at −20° C. On each day of an experiment, a frozen aliquot of the working stock solution was thawed and stored at room temperature prior to and during treatment.
(§3) All liquid handling steps were performed using the Tecan Freedom EVO 200 platform. First, serial 2-fold dilutions of the 33 mM DMSO working stock solution were done in DMSO. […]
(§4) A modified propidium iodide (PI) based monolayer assay was used to assess the anti-cancer activity of the compounds. Briefly, cells were harvested from exponential phase cultures, counted and plated in 96 well flat-bottom microtiter plates at a cell density of 4,000 to 40,000 cells/well dependent on the cell line's growth rate. […] After an incubation period of 1-2 hours at room temperature, fluorescence (FU) was measured using the Enspire Multimode Plate Reader (excitation λ=530 nm, emission λ=620 nm) to quantify the amount of attached viable cells. […]

MMXF L-363 = assay: Cytotoxicity, propidium iodide based monolayer assay, MMXF L-363; conditions: Homo sapiens, 96 h; MMXF L-363 (multiple myeloma), four days of treatment, T/C=50%; read-out: Absolute IC50
Method: as §1, §2, §3, §4

UXF 1138 = assay: Cytotoxicity, propidium iodide based monolayer assay, UXF 1138; conditions: 96 h; UXF 1138 (uterine sarcoma), four days of treatment, T/C=50%; read-out: Absolute IC50
Method: as §1, §2, §3, §4

[1] = test system: H1N1 (influenza A/New Caledonia/20/99); assay: Antiviral effect on A549 cells infected with H1N1 (MUNANA neuraminidase readout); conditions: H1N1 A/New Caledonia/20/99 at MOI 0.1, 48 h post-infection, MUNANA fluorescence, read-out: IC50
Method: The antiviral effect of the compounds of the invention have been tested on A549 cell lines infected with H1N1 (influenza A/New Caledonia/20/99).
Human A549 cells (80,000 cells/well in a 96 well plate) were treated with a range of concentration of test compounds and immediately infected by H1N1 A/New Caledonia/20/99 virus (clinical isolate) at MOI of 0.1 in DMEM/1% Penicillin/streptomycin supplemented with 0.25 μg/ml TPCK trypsin (Sigma) and incubated at 37° C. in 5% CO2. 48 h post-infection, supernatants (25 μl) were collected and transferred into a 96-well black flat-bottom plate, mixed with 25 μl PBS with Ca++/Mg++(Thermo Fisher) and 50 μl of 2′-(4-Methylumbelliferyl)-α-D-N-acetylneuraminic acid sodium salt hydrate stock-solution (20 μM, MUNANA, Sigma). Plates were incubated 1 h at 37° C. and reaction is stopped by adding 100 μl of Stop Solution (glycine 0.1 M pH10.7/25% ethanol). The amount of fluorescent product released by MUNANA hydrolysis (4-MU) was measured in a Tecan spectrophotometer with excitation and emission wavelengths of 365 and 450 nm respectively.

MAXF 401 = assay: Cytotoxicity, propidium iodide based monolayer assay, MAXF 401; conditions: Homo sapiens, MAXF401, 96 h; MAXF 401 (breast adeno carcinoma), four days of treatment, T/C=50%; read-out: Absolute IC50
Method: as §1, §2, §3, §4

## O=C(Nc1scc(C2CCc3ccccc3C2)c1C(=O)O)c1ccccc1 (centres unmarked) [#16]
PRXF PC-3M
  IC50: 485 nM
MMXF L-363
  IC50: 357 nM
UXF 1138
  IC50: 324 nM
[1]
  IC50: 11.1 nM
MAXF 401
  IC50: 507 nM
